# Experimental data: patent US20160175401A1, “COMPOITIONS AND METHODS FOR MODULATING THERMOGENESIS USING PTH-RELATED AND EGF-RELATED COMPOUNDS” (DANA-FARBER CANCER INSTITUTE INC., priority 2013, published 2016)
# Experiments:
# PTH1R [1] = molecular target: T1, PTH1R (Homo sapiens, UniProt Q03431); conditions: cited from earlier work
# T1 sequence (Q03431 27-593): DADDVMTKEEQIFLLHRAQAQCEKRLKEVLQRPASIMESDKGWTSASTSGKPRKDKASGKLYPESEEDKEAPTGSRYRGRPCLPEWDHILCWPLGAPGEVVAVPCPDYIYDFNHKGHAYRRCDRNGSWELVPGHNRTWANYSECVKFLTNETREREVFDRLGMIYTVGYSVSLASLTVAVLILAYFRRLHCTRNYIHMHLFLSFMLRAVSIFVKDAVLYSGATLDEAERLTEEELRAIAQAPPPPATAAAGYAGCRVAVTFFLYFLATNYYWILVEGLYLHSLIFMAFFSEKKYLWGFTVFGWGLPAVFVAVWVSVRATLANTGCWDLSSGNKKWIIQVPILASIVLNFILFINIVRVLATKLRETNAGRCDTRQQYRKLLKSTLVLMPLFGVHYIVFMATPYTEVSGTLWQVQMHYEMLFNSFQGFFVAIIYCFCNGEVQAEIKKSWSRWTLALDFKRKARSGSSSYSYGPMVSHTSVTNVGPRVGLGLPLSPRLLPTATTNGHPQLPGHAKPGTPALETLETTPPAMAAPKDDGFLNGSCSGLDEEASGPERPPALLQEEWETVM
# primary white adipocytes = assay: Thermogenic gene expression (qRT-PCR) in primary white adipocytes; assay type: cell-based, mouse; conditions: for thermogenic effects (thermogenic gene expression): 1 μg/ml, 4 hours, primary white adipocytes (FIG. 8A-8C)
# Description: Inguinal SV fractions were obtained from 30-35 days-old male mice by the following procedure. Inguinal fat tissue was dissected, washed with PBS, minced and digested for 45 min at 37° C. in PBS containing 10 mM CaCl, 2.4 U/mL dispase II (Roche), and 1.5 U/mL collagenase D (Roche). Digested tissue was filtered through a 100-μm cell strainer and centrifuged at 600 g for 5 min to pellet the SV cells which were then resuspended in SV culture medium (DMEM/F12 [1:1; Invitrogen] plus glutamax, pen/strep, and 10% FBS), filtered through a 40-μm cell strainer, centrifugation as above, resuspended in SV culture medium and plated. SV cells were grown to confluency for adipocyte differentiation which was induced by the adipogenic cocktail containing 1 μM dexamethasone, 5 μg/mL insulin, […] isobutylmethylxanthine (DMI), and 1 μM rosiglitazone in SV culture medium. 2 days after induction, cells were maintained in SV culture medium containing 5 μg/mL insulin and 1 μM rosiglitazone. Starting at day 6, cells were maintained in SV culture medium only and treated with various molecules for […] and harvested at day 8.
# LLC cells were maintained in DMEM (Invitrogen) with 10% FBS and pen/strep. For conditioned media collection, cells were plated at ⅓ confluency. The following day, medium is changed to FreeStyle expression medium (Invitrogen) which was collected 24 hours later. For concentration of expression medium, LLC conditioned media was filtered using a 3 kilodalton (Kd) cut-off filter (Millipore). Adipocytes were maintained in SV culture media (DMEM/F12 [1:1; Invitrogen] plus glutamax, pen/strep, and 10% FBS) and conditioned media treatment experiments were performed 7 days post-differentiation. When adipocytes were treated with conditioned media for 24 hours, the treatment media were composed of 50% SV culturing medium and 50% LLC conditioned media. When conditioned medium was filtered and concentrated, adipocytes were exposed to 90% SV culturing medium and 10% concentrated LLC conditioned media.
# RNA was extracted from cultured cells or frozen tissue samples using TRIzol (Invitrogen), purified with Qiagen RNAeasy minicolums and reverse transcribed using High Capacity cDNA Reverse Transcription kit (Applied Biosystems). Resulting cDNA was analyzed by RT-qPCR. Briefly, 25 ng of cDNA and […] of each primer were mixed with SYBR® GreenER™ PCR Master Mix (Invitrogen). Reactions were performed in 384-well format using an ABI PRISM® 7900HT instrument (Applied Biosystems). Relative mRNA levels were calculated using the comparative CT method normalized to cyclophilin.
# Inguinal stroma-vascular fractions were obtained from 30-35-day-old male mice using the following procedure: Inguinal fat tissue was dissected, washed with PBS, minced and digested for 45 min at 37° C. in PBS containing 10 mM CaCl2, 2.4 Uml^−1 dispase 11 (Roche) and 1.5 U ml^−1 collagenaseD (Roche). Digested tissue was filtered through a 100-μm cell strainer and centrifuged at 600 g for 5 min to pellet the stroma-vascular cells. The pellets were then resuspended in adipocyte culture medium (DMEM/F2 (1:1, Invitrogen) plus GlutaMAX, penicillin and streptomycin, and 10% FBS), filtered through a 40-μm cell strainer, centrifuged as above, resuspended in adipocyte culture medium and plated. The stroma-vascular cells were grown to confluence for adipocyte differentiation, which was induced by an adipogenic cocktail containing 1 μM dexamethasone, 5 μg ml^−1 insulin, […] isobutylmethylxanthine (DMI) and 1 μM rosiglitazone in adipocyte culture medium. Two days after induction, cells were maintained in adipocyte culture medium containing 5 μg ml^−1 insulin and 1 μM rosiglitazone. Starting on day 6, cells were maintained in adipocyte culture medium only and treated with various molecules for 2-24 h and harvested on day 8.
# LLC cells were maintained in DMEM (Invitrogen) with 10% FBS, and penicillin and streptomycin. For conditioned medium collection, cells were plated at a 1:3 confluence.
# PTH1R [2] = molecular target: T1, PTH1R; conditions: Dean et al., Hoare et al.; cited from earlier work
# [3] = system: PKA substrates CREB and HSL; assay: PKA signalling: protein phosphorylation by western blotting in primary adipocytes; assay type: cell-based, mouse; conditions: 100 nM NE, 100 ng ml^−1 PTHrP or PTH, 30 min, primary white and brown adipocytes (FIG. 23D-23E)
# Description: UCP1 protein levels were measured by western blotting in white (FIG. 23A) and brown (FIG. 23B) adipocytes. […] Real-time triplicate readings (upper panel) and their averages (lower panel) are shown (n=4). […] The values are mean±s.e.m. Statistical analysis was conducted using the two-tailed t-test. *, P<0.05; **, P<0.005; ***, P<0.0005, compared with the control group.
# Cells were homogenized in a lysis buffer containing 50 mMTris (pH 7.4), 500 mM NaCl, 1% NP40, 20% glycerol, 5 mM EDTA and 1 mM phenylmethylsulphonyl fluoride (PMSF) supplemented with protease and phosphatase inhibitor cocktails (Roche). The homogenates were centrifuged at 13,000 r.p.m. for 10 min, and the supernatants were used as whole-cell lysates. Protein concentration was determined by Bio-Rad protein assay, and […] protein lysate was separated in each SDS-PAGE lane. The separated proteins were transferred to a polyvinylidene difluoride (PVDF)membrane, which was blotted with antibodies in TBS containing 0.05% Tween (TBS-T) and 5% BSA. For secondary antibody incubation. TBS-T containing 5% milk was used. Enhanced chemiluminescence (ECL) western blotting substrates (Pierce) were used for visualization of the results.
substance,measurement,setting,value
"PTH (1-34): Synthetic peptide rat PTH(1-34) (Ala32-Phe65; Catalog No. H-5460), purchased from Bachem",duration of cAMP signal after ligand wash-out,PTH1R [1]; Dean et al. (2008),longer lasting cAMP signal
same,potency for activating cAMP signaling,PTH1R [1]; Juppner et al. (1991),equally potent for activating cAMP signaling
same,thermogenic gene expression,"primary white adipocytes; 100 ng ml^−1 peptide, 2 h, primary white adipocytes (FIG. 21B)",stimulated thermogenic gene expression
same,thermogenic effects (thermogenic gene expression),primary white adipocytes,thermogenic effects
same,thermogenic effects (thermogenic gene expression),primary white adipocytes; listed as PTH,powerful inducers of thermogenic gene expression
same,binding in the absence of G protein coupling (RO conformational state),PTH1R [2],only slightly decreased
same,phosphorylation of the PKA substrates CREB and HSL,[3],stimulated the phosphorylation
